Measured values as given in US5011930A, “Quinoline type mevalonolactones” (Nissan Chemical Industries Ltd., priority 1987, dated 1991).
Structures can show the parent of a compound that is named as a salt.

These compounds were tested on cholesterol biosynthesis in Hep G2 cells (assay: Test B-1: Inhibition of cholesterol biosynthesis in culture cells (Hep G2)). Conditions: Homo sapiens, HepG2, [2-^14 C]sodium acetate added at 0 hr after addition of compounds, 4 hrs incubation, read-out: Inhibitory activities by Test B-1: I50 (molar concentration).
Format: cell-based
Experimental: Hep G2 cells at over 5th passage were seeded to 12 well plates and incubated with Dulbecco's modified Eagle (DME) medium containing 10% of fetal bovine serum (FBS) at 37° C., 5% CO2 until cells were confluent for about 7 days. Cells were exposed to the DME medium containing 5% of lipoprotein deficient serum (LpDS) prepared by ultracentrifugation method for over 24 hours. Medium was changed to 0.5 ml of fresh 5% LpDS containing DME before assay and 10 μl of test compound solution dissolved in water or DMSO were added. 0.2 μCi of [2-^14 C]sodium acetate (20 μl) was added at 0 hr(B-1) or 4 hrs(B-2) after addition of compounds. After 4 hrs further incubation with [2-^14 C]sodium acetate, medium was removed and cells were washed with phosphate buffered saline(PBS) chilled at 4° C. Cells were scraped with rubber policeman and collected to tubes with PBS and digested with 0.2 ml of 0.5 N KOH at 37° C. Aliquot of digestion was used for protein analysis and remaining was saponified with 1 ml of 15% EtOH--KOH at 75° C. for 1 hour. […] Counts were revised by cell protein and indicated with DPM/mg protein. Inhibitory activity of compounds was indicated with IC50.

CC(C)c1nc2ccccc2c(-c2ccc(F)cc2)c1/C=C/C(O)CC(O)CC(=O)O (stereo not drawn) [I-51, Sodium salt of (E)-3,5-dihydroxy-7-[4'-(4"-fluorophenyl)-2'-(1"-methylethyl)-quinolin-3'-yl]-hept-6-enoic acid] gave an IC50 of 100 nM.

Same assay, conditions: relative to the activity of CS-514 being evaluated to be 1

Compared with CCOC(=O)CC(=O)CC(O)/C=C/c1c(C2CC2)nc2ccccc2c1-c1ccc(F)cc1 (stereo not drawn) [II-20], O=C(O)CC(O)CC(O)/C=C/c1c(C2CC2)nc2ccccc2c1-c1ccc(F)cc1 (stereo not drawn) [I-520] is lower in “Relative activities by Test B-1” value: 20.8 for the first, 20.0 for the second.

For CCOC(=O)CC(O)CC(O)/C=C/c1c(C(C)C)nc2cc(OC)c(OC)cc2c1-c1ccc(F)cc1 (stereo not drawn) [I-116], the “Relative activities by Test B-1” value was 19.4.

The compounds below were run on cholesterol biosynthesis (assay: Test A: Inhibition of cholesterol biosynthesis from acetate in vitro). Conditions: [2-^14 C]sodium acetate incorporation into nonsaponifiable lipids, 2 hours at 37° C.; IC50; read-out: Inhibitory activities by Test A: I50 (molar concentration).
Format: biochemical, male Wistar rat (liver microsome and sup fraction)
Experimental: Enzyme solution was prepared from liver of male Wistar rat billialy cannulated and discharged bile for over 24 hours. Liver was cut out at mid-dark and microsome and supernatant fraction which was precipitable with 40-80% of saturation of ammonium sulfate (sup fraction) were prepared from liver homogenate according to the modified method of Knauss et. al.; Kuroda, M., et. al., Biochim. Biophys. Acta, 489, 119 (1977). For assay of cholesterol biosynthesis, microsome (0.1 mg protein) and sup fraction (1.0 mg protein) were incubated for 2 hours at 37° C. in 200 μl of the reaction mixture containing ATP; 1 mM, Glutathione; 6 mM, Glucose-1-phosphate; 10 mM, NAD; 0.25 mM, NADP; 0.25 mM, CoA; 0.04 mM and 0.2 mM [2-^14 C]sodium acetate (0.2 μCi) with 4 μl of test compound solution dissolved in water or dimethyl sulfoxide. To stop reaction and saponify, 1 ml of 15% EtOH-KOH was added to the reactions and heated at 75° C. for 1 hour. […] Inhibitory activity of compounds was indicated with IC50.

Going from CC[C@H](C)C(=O)O[C@H]1C[C@H](O)C=C2C=C[C@H](C)[C@H](CC[C@@H](O)C[C@@H](O)CC(=O)O)[C@H]21 [CS-514, reference compound] to CC[C@H](C)C(=O)O[C@H]1C[C@@H](C)C=C2C=C[C@H](C)[C@H](CC[C@@H]3C[C@@H](O)CC(=O)O3)[C@H]21 [Mevinolin, reference compound], the IC50 rises from 9 nM to 14 nM (1.6-fold). The first is the more potent here.

First: CCOC(=O)CC(O)CC(O)/C=C/c1c(C)nc2ccccc2c1-c1ccccc1 (stereo not drawn) [I-13]
Second: Cc1nc2ccccc2c(-c2ccccc2)c1/C=C/C(O)CC(O)CC(=O)O (stereo not drawn) [I-53]
The IC50 of the first is 1.5-fold lower: 125 nM for the first, 190 nM for the second. The first is the more potent here.

Going from CC(C)c1nc2ccccc2c(-c2ccc(F)cc2)c1/C=C/C(O)CC(O)CC(=O)O (stereo not drawn) [I-51, Sodium salt of (E)-3,5-dihydroxy-7-[4'-(4"-fluorophenyl)-2'-(1"-methylethyl)-quinolin-3'-yl]-hept-6-enoic acid] to Cc1nc2ccccc2c(-c2ccc(F)cc2)c1/C=C/C(O)CC(O)CC(=O)O (stereo not drawn) [I-52], the IC50 rises from 10 nM to 71 nM (7.1-fold).

Same assay, conditions: relative to the activity of CS-514 being evaluated to be 1

First: CCOC(=O)CC(O)CC(O)/C=C/c1c(C2CC2)nc2ccccc2c1-c1ccc(F)cc1 (stereo not drawn) [I-120]
Second: CCOC(=O)CC(O)CC(O)/C=C/c1c(CC)nc2ccccc2c1-c1ccc(F)cc1 (stereo not drawn) [I-117]
The “Relative activities by Test A” value of the first is higher: 3.21 for the first, 0.37 for the second.

First: CC(C)c1nc2c(Cl)cc(Cl)cc2c(-c2ccc(F)cc2)c1/C=C/C(O)CC(O)CC(=O)O (stereo not drawn) [I-522]
Second: CCOC(=O)CC(O)CC(O)/C=C/c1c(C(C)C)nc2cc(OC)c(OC)cc2c1-c1ccc(F)cc1 (stereo not drawn) [I-116]
The “Relative activities by Test A” value of the first is lower: 0.76 for the first, 2.25 for the second.

In the case of CCOC(=O)CC(O)CC(O)/C=C/c1c(C(C)C)nc2ccc(Cl)cc2c1-c1ccccc1 (stereo not drawn) [I-16], the “Relative activities by Test A” value is reported as 1.75.
